From the NIST ThermoML archive (doi:10.1016/j.jct.2017.07.024)

Columns and labels:
[1] = wn = mass fraction of the nth substance listed; details: for surface tension liquid-gas: Maximal bubble pressure; for mass density: 100 kPa, Liquid, Vibrating tube method
[2] = refractive index (Na D-line) (dimensionless); wn = mass fraction of the nth substance listed; details: 100 kPa, Liquid, Standard Abbe refractometry

CCCn1cc[n+](C)c1.C[C@@H](O)[C@H](N)C(=O)[O-] [1-propyl-3-methylimidazolium DL-threoninate] + O
Details | mass density, [1] [kg/m3] | refractive index, [2] | surface tension liquid-gas, [1] [mN/m]
288.15 K, w2 = 0.0065 | 1150.46 | 1.5132 | 42
288.15 K, w2 = 0.0092 | 1150.15 | 1.5127 | 42.2
288.15 K, w2 = 0.0116 | 1149.81 | 1.5121 | 42.4
288.15 K, w2 = 0.0135 | 1149.56 | 1.5117 | 42.6
288.15 K, w2 = 0.0161 | 1149.22 | 1.5111 | 42.8
293.15 K, w2 = 0.0065 | 1147.75 | 1.5116 | 41.7
293.15 K, w2 = 0.0092 | 1147.33 | 1.5111 | 41.9
293.15 K, w2 = 0.0116 | 1146.94 | 1.5105 | 42.1
293.15 K, w2 = 0.0135 | 1146.61 | 1.5101 | 42.3
293.15 K, w2 = 0.0161 | 1146.22 | 1.5095 | 42.5
298.15 K, w2 = 0.0065 | 1143.37 | 1.5101 | 41.3
298.15 K, w2 = 0.0092 | 1142.89 | 1.5096 | 41.6
298.15 K, w2 = 0.0116 | 1142.43 | 1.509 | 41.8
298.15 K, w2 = 0.0135 | 1142.12 | 1.5086 | 42
298.15 K, w2 = 0.0161 | 1141.66 | 1.508 | 42.2
303.15 K, w2 = 0.0065 | 1139.97 | 1.5088 | 41
303.15 K, w2 = 0.0092 | 1139.49 | 1.5082 | 41.3
303.15 K, w2 = 0.0116 | 1139.07 | 1.5077 | 41.5
303.15 K, w2 = 0.0135 | 1138.7 | 1.5073 | 41.7
303.15 K, w2 = 0.0161 | 1138.27 | 1.5068 | 41.9
308.15 K, w2 = 0.0065 | 1136.59 | 1.5074 | 40.7
308.15 K, w2 = 0.0092 | 1136.11 | 1.5069 | 41
308.15 K, w2 = 0.0116 | 1135.68 | 1.5064 | 41.2
308.15 K, w2 = 0.0135 | 1135.31 | 1.5061 | 41.4
308.15 K, w2 = 0.0161 | 1134.87 | 1.5056 | 41.6
313.15 K, w2 = 0.0065 | 1133.16 | 1.506 | 40.4
313.15 K, w2 = 0.0092 | 1132.71 | 1.5055 | 40.7
313.15 K, w2 = 0.0116 | 1132.22 | 1.5052 | 40.9
313.15 K, w2 = 0.0135 | 1131.88 | 1.5048 | 41.1
313.15 K, w2 = 0.0161 | 1131.4 | 1.5044 | 41.3
318.15 K, w2 = 0.0065 | 1129.72 | 1.5044 | 40.1
318.15 K, w2 = 0.0092 | 1129.19 | 1.504 | 40.4
318.15 K, w2 = 0.0116 | 1128.78 | 1.5036 | 40.6
318.15 K, w2 = 0.0135 | 1128.43 | 1.5033 | 40.8
318.15 K, w2 = 0.0161 | 1127.95 | 1.5028 | 41.1
323.15 K, w2 = 0.0065 | 1126.27 | 1.5029 | 39.8
323.15 K, w2 = 0.0092 | 1125.8 | 1.5024 | 40.1
323.15 K, w2 = 0.0116 | 1125.32 | 1.5021 | 40.4
323.15 K, w2 = 0.0135 | 1124.96 | 1.5018 | 40.6
323.15 K, w2 = 0.0161 | 1124.48 | 1.5013 | 40.9
328.15 K, w2 = 0.0065 | 1122.82 | 1.5015 | 39.5
328.15 K, w2 = 0.0092 | 1122.34 | 1.5011 | 39.8
328.15 K, w2 = 0.0116 | 1121.86 | 1.5007 | 40.1
328.15 K, w2 = 0.0135 | 1121.5 | 1.5004 | 40.4
328.15 K, w2 = 0.0161 | 1121 | 1.4999 | 40.7

CCCCCn1cc[n+](C)c1.C[C@@H](O)[C@H](N)C(=O)[O-] [1-pentyl-3-methylimidazolium DL-threoninate] + O
Details | mass density, [1] [kg/m3] | refractive index, [2] | surface tension liquid-gas, [1] [mN/m]
288.15 K, w2 = 0.0066 | 1107.18 | 1.5071 | 38.8
288.15 K, w2 = 0.0097 | 1106.95 | 1.5067 | 39
288.15 K, w2 = 0.0119 | 1106.76 | 1.5064 | 39.2
288.15 K, w2 = 0.0141 | 1106.59 | 1.5061 | 39.4
288.15 K, w2 = 0.0165 | 1106.41 | 1.5058 | 39.6
293.15 K, w2 = 0.0066 | 1103.87 | 1.5056 | 38.4
293.15 K, w2 = 0.0097 | 1103.64 | 1.5053 | 38.6
293.15 K, w2 = 0.0119 | 1103.45 | 1.505 | 38.8
293.15 K, w2 = 0.0141 | 1103.28 | 1.5047 | 39
293.15 K, w2 = 0.0165 | 1103.1 | 1.5044 | 39.2
298.15 K, w2 = 0.0066 | 1100.56 | 1.504 | 38.2
298.15 K, w2 = 0.0097 | 1100.33 | 1.5037 | 38.4
298.15 K, w2 = 0.0119 | 1100.14 | 1.5034 | 38.6
298.15 K, w2 = 0.0141 | 1099.97 | 1.5032 | 38.8
298.15 K, w2 = 0.0165 | 1099.79 | 1.5028 | 39
303.15 K, w2 = 0.0066 | 1097.21 | 1.5024 | 37.8
303.15 K, w2 = 0.0097 | 1096.98 | 1.5021 | 38.1
303.15 K, w2 = 0.0119 | 1096.79 | 1.5017 | 38.3
303.15 K, w2 = 0.0141 | 1096.61 | 1.5015 | 38.5
303.15 K, w2 = 0.0165 | 1096.42 | 1.5012 | 38.7
308.15 K, w2 = 0.0066 | 1093.89 | 1.5009 | 37.5
308.15 K, w2 = 0.0097 | 1093.66 | 1.5006 | 37.8
308.15 K, w2 = 0.0119 | 1093.46 | 1.5003 | 38
308.15 K, w2 = 0.0141 | 1093.29 | 1.5 | 38.2
308.15 K, w2 = 0.0165 | 1093.09 | 1.4997 | 38.4
313.15 K, w2 = 0.0066 | 1090.6 | 1.4992 | 37.2
313.15 K, w2 = 0.0097 | 1090.36 | 1.4988 | 37.5
313.15 K, w2 = 0.0119 | 1090.16 | 1.4984 | 37.7
313.15 K, w2 = 0.0141 | 1089.98 | 1.4982 | 37.9
313.15 K, w2 = 0.0165 | 1089.78 | 1.4978 | 38.1
318.15 K, w2 = 0.0066 | 1087.14 | 1.4977 | 36.9
318.15 K, w2 = 0.0097 | 1086.89 | 1.4974 | 37.2
318.15 K, w2 = 0.0119 | 1086.69 | 1.497 | 37.4
318.15 K, w2 = 0.0141 | 1086.51 | 1.4967 | 37.6
318.15 K, w2 = 0.0165 | 1086.31 | 1.4963 | 37.9
323.15 K, w2 = 0.0066 | 1083.97 | 1.4961 | 36.6
323.15 K, w2 = 0.0097 | 1083.72 | 1.4957 | 36.9
323.15 K, w2 = 0.0119 | 1083.51 | 1.4954 | 37.1
323.15 K, w2 = 0.0141 | 1083.32 | 1.4951 | 37.3
323.15 K, w2 = 0.0165 | 1083.11 | 1.4947 | 37.6
328.15 K, w2 = 0.0066 | 1080.67 | 1.4945 | 36.3
328.15 K, w2 = 0.0097 | 1080.42 | 1.4941 | 36.6
328.15 K, w2 = 0.0119 | 1080.21 | 1.4937 | 36.8
328.15 K, w2 = 0.0141 | 1080.02 | 1.4934 | 37
328.15 K, w2 = 0.0165 | 1079.81 | 1.4931 | 37.3
